Among the data in PubChem BioAssay (NCI) are TGI values, retold here.

Among the test systems are K-562 leukemia; U251 CNS; DU-145 prostate; LOX IMVI melanoma; HL-60(TB) leukemia; CAKI-1 renal; TK-10 renal; NCI-H460 lung; BT-549 breast; SK-MEL-5 melanoma; CCRF-CEM leukemia; MDA-MB-435; EKVX NSCLC; SF-295 CNS; HCT-116 colon; KM12 colon; HCC-2998 colon; SR leukemia; M14 melanoma; SK-MEL-2 melanoma.
Common to all, as to assay: NCI anticancer screen, dose series, 48 h

The structures appear in SMILES notation.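 The compound was tested at five concentrations on cells cultured in 96-well plates, with a 48-hour exposure period. TGI marks complete inhibition of growth.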

With `CCN(CC)c1ccc2cc(C(=O)Nc3nc(C45CC6CC(CC(C6)C4)C5)cs3)c(=O)oc2c1`, the TGI in the assay with K-562 leukemia, in the assay on U251 CNS, in the assay with DU-145 prostate, in the assay on LOX IMVI melanoma, in the assay on HL-60(TB) leukemia and with CAKI-1 renal was more than 100 µM in each case. The TGI with TK-10 renal, with NCI-H460 lung, in the assay on BT-549 breast, with SK-MEL-5 melanoma, with CCRF-CEM leukemia and in the assay with MDA-MB-435 was more than 100 µM each time. The TGI in the assay with EKVX NSCLC, in the assay on SF-295 CNS, in the assay with HCT-116 colon, in the assay with KM12 colon, in the assay with HCC-2998 colon and in the assay on SR leukemia was more than 100 µM in each case.

For the molecule `COc1ccc(CCNC(=O)CCc2ccccc2CO)cc1OC`, the TGI in the assay with K-562 leukemia, with U251 CNS, in the assay with DU-145 prostate, in the assay with HL-60(TB) leukemia, in the assay on CAKI-1 renal and in the assay with M14 melanoma was more than 100 µM each time. For the same molecule, the TGI with TK-10 renal, with NCI-H460 lung, in the assay on BT-549 breast, in the assay with SK-MEL-5 melanoma, with CCRF-CEM leukemia and with MDA-MB-435 was more than 100 µM each time. Moreover, the TGI in the assay with EKVX NSCLC, in the assay with SF-295 CNS, with SK-MEL-2 melanoma, with HCT-116 colon, with KM12 colon and in the assay with HCC-2998 colon was more than 100 µM each time. This molecule returned a TGI in the assay with SR leukemia of more than 100 µM.

As for `CC(=O)c1sc(Nc2ccc(Cl)c(Cl)c2)nc1C`, the TGI in the assay on U251 CNS, in the assay on DU-145 prostate, with LOX IMVI melanoma, in the assay with CAKI-1 renal, in the assay with TK-10 renal and in the assay on NCI-H460 lung was more than 100 µM throughout. In addition, the TGI with BT-549 breast, in the assay with SK-MEL-5 melanoma, in the assay with MDA-MB-435, with EKVX NSCLC, in the assay on SF-295 CNS and in the assay on HCT-116 colon was more than 100 µM throughout. Also, the TGI in the assay with KM12 colon, with HCC-2998 colon and in the assay with SR leukemia was more than 100 µM in each case.

For `CNC(=O)CNC(=O)C(Cc1ccc(NC(=O)CCCCC(C)=O)cc1)NC(=O)C(CCC(=O)OCc1ccccc1)NC(=O)OC(C)(C)C` (centres undefined), the TGI with K-562 leukemia, in the assay with U251 CNS, in the assay with DU-145 prostate, in the assay on LOX IMVI melanoma, in the assay with HL-60(TB) leukemia and in the assay with CAKI-1 renal was more than 100 µM throughout. The TGI in the assay with M14 melanoma, in the assay with TK-10 renal, with NCI-H460 lung, in the assay on BT-549 breast, in the assay on SK-MEL-5 melanoma and in the assay on MDA-MB-435 was more than 100 µM throughout. Also, the TGI in the assay with EKVX NSCLC, with SF-295 CNS, in the assay with HCT-116 colon, in the assay on KM12 colon, in the assay with HCC-2998 colon and in the assay on SR leukemia was more than 100 µM in each case.

Consider `C/C(=N\Nc1nc2ccccc2o1)c1cc(C)ncn1`, for which the TGI with K-562 leukemia is more than 100 µM; in the assay with U251 CNS, more than 100 µM; in the assay on DU-145 prostate it was more than 100 µM; in the assay with HL-60(TB) leukemia, more than 100 µM; in the assay with CAKI-1 renal, 42.5 µM; with M14 melanoma, more than 34.7 µM. For the same molecule, the TGI in the assay with NCI-H460 lung was 30.5 µM; in the assay with BT-549 breast, more than 100 µM; in the assay with SK-MEL-5 melanoma, 14.3 µM; in the assay on CCRF-CEM leukemia it was more than 100 µM; with MDA-MB-435 it was more than 100 µM; in the assay on EKVX NSCLC it was 2.95 µM. Also, the TGI is 32.7 µM in the assay with SK-MEL-2 melanoma; more than 100 µM in the assay with HCT-116 colon; 11.7 µM in the assay with KM12 colon; more than 48.6 µM with HCC-2998 colon; more than 100 µM in the assay on SR leukemia.

With `Cc1ccc(CC(Cc2ccc(C)cc2C(=O)O)C(=O)O)cc1` (centres undefined), the TGI in the assay with U251 CNS, in the assay with DU-145 prostate, with LOX IMVI melanoma, in the assay on HL-60(TB) leukemia, with CAKI-1 renal and in the assay with M14 melanoma was more than 100 µM each time. For the same molecule, the TGI with TK-10 renal, in the assay on NCI-H460 lung, in the assay on BT-549 breast, in the assay on SK-MEL-5 melanoma, with CCRF-CEM leukemia and with MDA-MB-435 was more than 100 µM each time. Besides, the TGI in the assay with EKVX NSCLC, in the assay with SF-295 CNS, in the assay with SK-MEL-2 melanoma, with HCT-116 colon, with KM12 colon and with HCC-2998 colon was more than 100 µM in each case. The molecule further gave a TGI in the assay with SR leukemia of more than 100 µM.

On to `CC(=O)Oc1cc(C)c(OC(C)=O)c2c1[C@H]1CC[C@]3(C)[C@@H](OC(C)=O)CC[C@H]3[C@@H]1CC2`, for which the TGI in the assay with K-562 leukemia was 86.1 µM; in the assay with U251 CNS, 29.4 µM; in the assay with DU-145 prostate, 31.5 µM; with LOX IMVI melanoma, 29.3 µM; with HL-60(TB) leukemia, 56.7 µM; in the assay on CAKI-1 renal, 31.5 µM. In addition, the TGI in the assay with M14 melanoma was 30.2 µM; with TK-10 renal, 31.6 µM; in the assay on NCI-H460 lung, 33.1 µM; in the assay on BT-549 breast it was 30.7 µM; with SK-MEL-5 melanoma, 31.3 µM; with CCRF-CEM leukemia it was 43.5 µM. Moreover, the TGI with MDA-MB-435 amounted to 27.7 µM; in the assay on EKVX NSCLC, 26.4 µM; with SF-295 CNS it was 37.2 µM; in the assay with HCT-116 colon it was 30.2 µM; in the assay on KM12 colon it was 28.6 µM; in the assay on HCC-2998 colon, 26.9 µM. The same molecule had a TGI in the assay on SR leukemia of more than 100 µM.

In the case of `CC(=O)C(=[N+]=[N-])C(=O)OCCOC(=O)C(=[N+]=[N-])C(C)=O`, the TGI in the assay on K-562 leukemia, in the assay on U251 CNS, in the assay on DU-145 prostate, in the assay on LOX IMVI melanoma, in the assay with HL-60(TB) leukemia and with M14 melanoma was more than 1 µM in each case. Also, the TGI with TK-10 renal, with NCI-H460 lung, in the assay on BT-549 breast, in the assay with SK-MEL-5 melanoma, with CCRF-CEM leukemia and with MDA-MB-435 was more than 1 µM throughout. Further, the TGI with EKVX NSCLC, in the assay with SF-295 CNS, in the assay with SK-MEL-2 melanoma, in the assay with HCT-116 colon, with KM12 colon and in the assay with HCC-2998 colon was more than 1 µM throughout. In addition, in the assay with SR leukemia, the TGI is more than 1 µM.
